Columns and labels:
Experiment in all cases: Cell proliferation assay (Alamar Blue)
Format in all cases: cell-based
PC3 = settings: Homo sapiens, PC-3, 96 h, PC3 cells, four days
How it was run: (§1)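 Cells were seeded at 4,000-5,000 per well and exposed to compound dilutions for four days at 37°C, 5% CO2. Alamar Blue was then added for four hours, and fluorescence was read at 544 nm excitation / 590 nm emission.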

MiaPaCa = settings: Homo sapiens, MIA PaCa-2, 96 h, MiaPaCa cells, four days
How it was run: as §1

A375 = settings: Homo sapiens, A-375, 96 h, A375 cells, four days
How it was run: as §1

Hs578T = settings: Homo sapiens, Hs-578T, 96 h, Hs578T cells, four days
How it was run: as §1

Jurkat = settings: Homo sapiens, 96 h, Jurkat cells, four days
How it was run: as §1

H1299 = settings: Homo sapiens, NCI-H1299, 96 h, H1299 cells, four days
How it was run: as §1

HCT-116 = settings: Homo sapiens, 96 h, HCT-116 cells, four days
MDAMB231 = settings: Homo sapiens, MDA-MB-231, 96 h, MDAMB231 cells, four days
How it was run: as §1

A549 = settings: Homo sapiens, 96 h, A549 cells, four days
How it was run: as §1

MCF-7 = settings: Homo sapiens, MCF7, 96 h, MCF-7 cells, four days
How it was run: as §1

LNCaP = settings: Homo sapiens, 96 h, LNCaP cells, four days
How it was run: as §1

K-562 = settings: Homo sapiens, K562, 96 h, K-562 cells, four days
PanC1 = settings: Homo sapiens, PANC-1, 96 h, PanC1 cells, four days
How it was run: as §1

BxPC3 = settings: Homo sapiens, BXPC-3, 96 h, BxPC3 cells, four days
How it was run: as §1

SMILES | IC50 (PC3) [µM] | IC50 (Jurkat) [µM] | IC50 (H1299) [µM] | IC50 (PanC1) [µM] | IC50 (BxPC3) [µM] | also measured
O=C(O)c1ccc2c(c1)nc(Nc1cccc(Cl)c1)c1ncncc12 [drawing 303] | 9.14 | 0.88 | 3.01 | – | – | IC50 (MiaPaCa): 2.09 µM; IC50 (A375): 5.45 µM; IC50 (Hs578T): 11.2 µM; IC50 (HCT-116): 7.19 µM
N#Cc1cccc(Nc2nc3cc(C(=O)O)ccc3c3cnccc23)c1 [drawing 388] | – | – | – | – | – | IC50 (MDAMB231): 28.7 µM; IC50 (A549): > 50 µM; IC50 (MCF-7): 41 µM; IC50 (LNCaP): 15.5 µM; IC50 (K-562): 9.15 µM
O=C(O)c1ccc2c(c1)nc(Nc1cccc(F)c1)c1ccncc12 [drawing 375] | – | – | – | – | – | IC50 (A549): 16.6 µM
O=C(O)c1ccc2c(c1)nc(Nc1ccc(F)c(Cl)c1)c1ncncc12 [drawing 296] | 18.8 | 4.29 | 7.55 | – | – | IC50 (MiaPaCa): 1.22 µM; IC50 (Hs578T): 9.7 µM
COC(=O)c1ccc2c(c1)nc(Nc1ccc(F)c(Cl)c1)c1ncncc12 [drawing 295] | 15.8 | 20.3 | 15.4 | – | – | IC50 (Hs578T): 3.7 µM; IC50 (HCT-116): > 10 µM
Clc1cccc(Nc2nc3cc(-c4nnn[nH]4)ccc3c3cnccc23)c1 [drawing 386] | – | – | – | – | – | IC50 (MDAMB231): > 50 µM; IC50 (A549): > 50 µM; IC50 (MCF-7): > 50 µM; IC50 (LNCaP): 37.4 µM; IC50 (K-562): 31.2 µM
CNc1ncc2c(n1)c(Nc1cccc(Cl)c1)nc1cc(C(=O)O)ccc12 [drawing 480] | – | – | – | 8.3 | 2.56 | –
CN(C)c1ncc2c(n1)c(Nc1cccc(Cl)c1)nc1cc(C(=O)O)ccc12 [drawing 481] | – | – | – | > 50 | 42.7 | –
O=C(O)c1ccc2c(c1)nc(Nc1ccccc1)c1nc(Nc3ccccc3)ncc12 [drawing 512] | – | – | – | 3.72 | 40.1 | –
O=C(O)c1ccc2c(c1)nc(Nc1ccccc1)c1nc(NCCN3CCOCC3)ncc12 [drawing 468] | – | – | – | 27.4 | 4.67 | –
O=C(O)c1ccc2c(c1)nc(Nc1ccc(Cl)c(C(F)(F)F)c1)c1ccncc12 [drawing 476] | – | – | – | 17.9 | 2.6 | –
O=C(O)c1ccc2c(c1)nc(Nc1ccccc1)c1nc(NCCCN3CCOCC3)ncc12 [drawing 469] | – | – | – | > 50 | 1.65 | –
CC(C)OC(=O)Nc1ccc2c(c1)nc(Nc1cccc(C(F)(F)F)c1)c1nc(NC3CC3)ncc12 [drawing 513] | – | – | – | 9.88 | 0.9 | –
COCCNc1ncc2c(n1)c(Nc1ccc(F)c(Cl)c1)nc1cc(C(=O)O)ccc12 [drawing 489] | – | – | – | > 50 | 1.61 | –
Fc1cccc(Nc2nc3cc(-c4nnn[nH]4)ccc3c3cnccc23)c1 [drawing 381] | – | – | – | – | – | IC50 (MDAMB231): > 50 µM; IC50 (A549): > 50 µM; IC50 (MCF-7): > 50 µM; IC50 (LNCaP): < 0.2 µM
C#Cc1cccc(Nc2nc3cc(C(=O)O)ccc3c3cnc(NCCOCC)nc23)c1 [drawing 490] | – | – | – | 2.41 | 0.69 | –
CN(C)CCNc1ncc2c(n1)c(Nc1ccc(F)c(Cl)c1)nc1cc(C(=O)O)ccc12 [drawing 504] | – | – | – | 44.9 | 1.52 | –
CN(C)CCNc1nc2cc(C(=O)O)ccc2c2cnccc12 | 17.9 | 23.8 | 3.8 | – | – | IC50 (Hs578T): 12.9 µM; IC50 (HCT-116): > 10 µM
CCCNc1ncc2c(n1)c(Nc1ccccc1)nc1cc(C(=O)O)ccc12 [drawing 462] | – | – | – | 4.28 | 5.83 | –
O=C(O)c1ccc2c(c1)nc(Nc1cccc(F)c1)c1nc(NC3CC3)ncc12 [drawing 502] | – | – | – | 2.81 | 9.89 | –
COC(=O)c1ccc2c(c1)nc(Nc1cccc(Cl)c1)c1nc(NCCC(N)=O)ncc12 [drawing 496] | – | – | – | 25.5 | 2.62 | –
Fc1cc(Nc2nc3cc(-c4nnn[nH]4)ccc3c3cnccc23)ccc1Cl [drawing 382] | – | – | – | – | – | IC50 (MDAMB231): > 50 µM; IC50 (A549): > 50 µM; IC50 (MCF-7): 5.94 µM; IC50 (LNCaP): 48.2 µM; IC50 (K-562): > 50 µM
C#Cc1cccc(Nc2nc3cc(C(=O)O)ccc3c3cnc(NCCCOC(C)C)nc23)c1 [drawing 492] | – | – | – | 3.1 | 0.97 | –
O=C(O)CCNc1ncc2c(n1)c(Nc1cccc(Cl)c1)nc1cc(C(=O)O)ccc12 [drawing 498] | – | – | – | > 50 | 43.5 | –
COC(=O)c1ccc2c(c1)nc(Nc1ccccc1)c1ccncc12 | 11.3 | 6.83 | 13.1 | – | – | IC50 (Hs578T): 4.78 µM; IC50 (HCT-116): 15 µM
O=C(O)c1ccc2c(c1)nc(Nc1cccc(Cl)c1)c1nc(O)ncc12 [drawing 493] | – | – | – | > 50 | 15.8 | –
CCN(CC)CCNc1ncc2c(n1)c(Nc1ccccc1)nc1cc(C(=O)O)ccc12 [drawing 467] | – | – | – | > 50 | 10.7 | –
C#Cc1cccc(Nc2nc3cc(C(=O)O)ccc3c3cnc(NCCCN4CCOCC4)nc23)c1 [drawing 474] | – | – | – | 11.2 | 3.6 | –
O=C(O)c1ccc2c(c1)nc(Nc1ccc(F)c(Cl)c1)c1nc(NCc3ccccn3)ncc12 [drawing 505] | – | – | – | > 50 | 11.1 | –
O=C(O)c1ccc2c(c1)nc(Nc1cc(F)cc(F)c1)c1nc(NC3CC3)ncc12 [drawing 501] | – | – | – | 16.1 | 14.9 | –

Further lines, with some results ahead:

IC50 (PC3) [µM] | IC50 (Jurkat) [µM] | IC50 (H1299) [µM] | IC50 (PanC1) [µM] | IC50 (BxPC3) [µM] | SMILES | also measured
16.8 | 2.78 | 3.65 | – | – | C#Cc1cccc(Nc2nc3cc(C(=O)O)ccc3c3cnccc23)c1 [drawing 309] | IC50 (MiaPaCa): 3.85 µM; IC50 (A375): 7.36 µM; IC50 (Hs578T): 4.03 µM
8.63 | 2.53 | 1.94 | – | – | O=C(O)c1ccc2c(c1)nc(Nc1ccc(Cl)cc1)c1ccncc12 [drawing 308] | IC50 (MiaPaCa): 2.7 µM; IC50 (A375): 4.8 µM; IC50 (Hs578T): 6.64 µM; IC50 (HCT-116): 6.72 µM
> 50 | 18.8 | > 50 | – | – | Fc1cc(Nc2nc3cc(-c4nnn[nH]4)ccc3c3cnccc23)ccc1Cl [drawing 306] | IC50 (MiaPaCa): > 10 µM; IC50 (HCT-116): > 10 µM
9.23 | 3.19 | 8.32 | – | – | O=C(O)c1ccc2c(c1)nc(Nc1cccc(F)c1)c1ccncc12 [drawing 298] | IC50 (MiaPaCa): 6.86 µM; IC50 (Hs578T): 5.89 µM
26.4 | 22 | – | – | – | N#Cc1cccc(Nc2nc3cc(C(=O)O)ccc3c3cnccc23)c1 [drawing 312] | IC50 (MiaPaCa): > 10 µM; IC50 (Hs578T): 35.6 µM; IC50 (HCT-116): > 10 µM
9.02 | 4.25 | 8.46 | – | – | COC(=O)c1ccc2c(c1)nc(Nc1ccc(F)c(Cl)c1)c1ccncc12 | IC50 (Hs578T): 2.62 µM; IC50 (HCT-116): 3.94 µM
17.4 | 6.52 | 10.7 | – | – | COc1cccc(Nc2nc3cc(C(=O)O)ccc3c3cnccc23)c1 | IC50 (MiaPaCa): > 10 µM; IC50 (Hs578T): 12.9 µM; IC50 (HCT-116): > 10 µM
> 50 | 9.43 | > 50 | – | – | Fc1cccc(Nc2nc3cc(-c4nnn[nH]4)ccc3c3cnccc23)c1 [drawing 305] | IC50 (MiaPaCa): > 10 µM; IC50 (HCT-116): > 10 µM
46.6 | 14.2 | > 50 | – | – | Clc1cccc(Nc2nc3cc(-c4nnn[nH]4)ccc3c3cnccc23)c1 [drawing 310] | IC50 (MiaPaCa): > 10 µM; IC50 (HCT-116): > 10 µM
– | – | – | 38 | 2.23 | Cc1cccc(Nc2nc3cc(C(=O)O)ccc3c3cnccc23)c1 [drawing 499] | –
11.3 | 3.4 | 7.16 | – | – | COC(=O)c1ccc2c(c1)nc(Nc1cccc(OC)c1)c1ccncc12 | IC50 (Hs578T): 1.82 µM; IC50 (HCT-116): 15 µM

Reference: patent EP2061765B1, “Serine-threonine protein kinase and PARP modulators” (Senhwa Biosciences, Inc., priority 2006, dated 2008)
